According to PMC10178848, “Modulating fast skeletal muscle contraction protects skeletal muscle in animal models of Duchenne muscular dystrophy” (The Journal of Clinical Investigation, 2023):

Tested on: GRMD plasma proteins
Assay type: in vivo, dog
Conditions: EDG-5506 treatment to GRMD baseline

SMILES: O=c1ccc(-c2cnc(OCC(F)(F)F)nc2)nn1Cc1cncc(F)c1 [EDG-5506]
- Proteasome activator complex subunit 3 (PSME3): Change from GRMD Baseline (fraction) (Decreased in GRMD): 0.0977 fraction
- Protein S100-A4 (S100A4): Change from GRMD Baseline (fraction) (Decreased in GRMD): 0.1824 fraction
- Protein amnionless (AMN): Change from GRMD Baseline (fraction) (Decreased in GRMD): 0.1425 fraction
- Protein jagged-1 (JAG1): Change from GRMD Baseline (fraction) (Decreased in GRMD): 0.2072 fraction
- Retinol-binding protein 4 (RBP4): Change from GRMD Baseline (fraction) (Decreased in GRMD): 0.0942 fraction
- Roundabout homolog 2 (ROBO2): Change from GRMD Baseline (fraction) (Decreased in GRMD): 0.1874 fraction
- SLIT and NTRK-like protein 5 (SLITRK5): Change from GRMD Baseline (fraction) (Decreased in GRMD): 0.1091 fraction
- SPARC (SPARC): Change from GRMD Baseline (fraction) (Decreased in GRMD): 0.0605 fraction
- Sclerostin (SOST): Change from GRMD Baseline (fraction) (Decreased in GRMD): 0.197 fraction
- Semaphorin-3E (SEMA3E): Change from GRMD Baseline (fraction) (Decreased in GRMD): -0.0152 fraction
- Semaphorin-5A (SEMA5A): Change from GRMD Baseline (fraction) (Decreased in GRMD): 0.0882 fraction
- Serum albumin (ALB): Change from GRMD Baseline (fraction) (Decreased in GRMD): 0.068 fraction
- Sialic acid-binding Ig-like lectin 6 (SIGLEC6): Change from GRMD Baseline (fraction) (Decreased in GRMD): 0.1345 fraction
- Stem cell growth factor-alpha (CLEC11A): Change from GRMD Baseline (fraction) (Decreased in GRMD): -0.071 fraction
- T-lymphocyte surface antigen Ly-9 (LY9): Change from GRMD Baseline (fraction) (Decreased in GRMD): 0.0785 fraction
- TGF-beta receptor type-2 (TGFBR2): Change from GRMD Baseline (fraction) (Decreased in GRMD): -0.0644 fraction
- Tropomyosin alpha-1 chain (TPM1): Change from GRMD Baseline (fraction) (Decreased in GRMD): 0.0152 fraction
- Tumor necrosis factor receptor superfamily member 10B (TNFRSF10B): Change from GRMD Baseline (fraction) (Decreased in GRMD): 0.131 fraction
- Tumor necrosis factor-inducible gene 6 protein (TNFAIP6): Change from GRMD Baseline (fraction) (Decreased in GRMD): 0.2046 fraction
- Wnt inhibitory factor 1 (WIF1): Change from GRMD Baseline (fraction) (Decreased in GRMD): 0.0365 fraction
- Activated Protein C (PROC): Change from GRMD Baseline (fraction) (Increased in GRMD): -0.0147 fraction
- Adiponectin (ADIPOQ): Change from GRMD Baseline (fraction) (Increased in GRMD): -0.1461 fraction
- Alanine aminotransferase 1 (GPT): Change from GRMD Baseline (fraction) (Increased in GRMD): -0.0729 fraction
- Alpha-2-antiplasmin (SERPINF2): Change from GRMD Baseline (fraction) (Increased in GRMD): -0.0328 fraction
- Apolipoprotein D (APOD): Change from GRMD Baseline (fraction) (Increased in GRMD): -0.0675 fraction
- Apolipoprotein L1 (APOL1): Change from GRMD Baseline (fraction) (Increased in GRMD): -0.1374 fraction
- Asialoglycoprotein receptor 1 (ASGR1): Change from GRMD Baseline (fraction) (Increased in GRMD): -0.009 fraction
- Bone morphogenetic protein 1 (BMP1): Change from GRMD Baseline (fraction) (Increased in GRMD): 0.0186 fraction
- Breast cancer anti-estrogen resistance protein 3 (BCAR3): Change from GRMD Baseline (fraction) (Increased in GRMD): -0.0831 fraction
- C5a anaphylatoxin (C5): Change from GRMD Baseline (fraction) (Increased in GRMD): 0.2048 fraction
- C-C motif chemokine 1 (CCL1): Change from GRMD Baseline (fraction) (Increased in GRMD): -0.0825 fraction
- C-C motif chemokine 3 (CCL3): Change from GRMD Baseline (fraction) (Increased in GRMD): -0.078 fraction
- C-X-C motif chemokine 5 (CXCL5): Change from GRMD Baseline (fraction) (Increased in GRMD): -0.0608 fraction
- CD63 antigen (CD63): Change from GRMD Baseline (fraction) (Increased in GRMD): -0.0803 fraction
- CD97 antigen (CD97): Change from GRMD Baseline (fraction) (Increased in GRMD): -0.1124 fraction
- CD109 antigen (CD109): Change from GRMD Baseline (fraction) (Increased in GRMD): -0.0257 fraction
- CD177 antigen (CD177): Change from GRMD Baseline (fraction) (Increased in GRMD): -0.1306 fraction
- Carbonic anhydrase 4 (CA4): Change from GRMD Baseline (fraction) (Increased in GRMD): -0.0922 fraction
- Caspase-3 (CASP3): Change from GRMD Baseline (fraction) (Increased in GRMD): -0.0323 fraction
- Cell adhesion molecule 3 (CADM3): Change from GRMD Baseline (fraction) (Increased in GRMD): -0.0647 fraction
- Change from GRMD Baseline (fraction): 1-phosphatidylinositol 4,5-bisphosphate phosphodiesterase gamma-1 (PLCG1) (Increased in GRMD): -0.0855 fraction
- Change from GRMD Baseline (fraction): 14-3-3 protein family (YWHAB,YWHAE,YWHAG,YWHAH,YWHAQ,YWHAZ,SFN) (Increased in GRMD): -0.1463 fraction
- Change from GRMD Baseline (fraction): 26S proteasome non-ATPase regulatory subunit 7 (PSMD7) (Increased in GRMD): 0.0373 fraction
- Change from GRMD Baseline (fraction): 40S ribosomal protein S7 (RPS7) (Increased in GRMD): -0.3231 fraction
- Change from GRMD Baseline (fraction): A disintegrin and metalloproteinase with thrombospondin motifs 5 (ADAMTS5) (Increased in GRMD): 0.004 fraction
- Change from GRMD Baseline (fraction): A disintegrin and metalloproteinase with thrombospondin motifs 15 (ADAMTS15) (Increased in GRMD): -0.0189 fraction
- Change from GRMD Baseline (fraction): AH receptor-interacting protein (AIP) (Increased in GRMD): -0.1069 fraction
- Change from GRMD Baseline (fraction): AMP Kinase (alpha2beta2gamma1) (PRKAA2 PRKAB2 PRKAG1) (Increased in GRMD): -0.3422 fraction
- Change from GRMD Baseline (fraction): ATP synthase subunit beta, mitochondrial (ATP5B) (Increased in GRMD): 0.3871 fraction
- Change from GRMD Baseline (fraction): ATP-dependent RNA helicase DDX19B (DDX19B) (Increased in GRMD): -0.2236 fraction
- Change from GRMD Baseline (fraction): Acidic leucine-rich nuclear phosphoprotein 32 family member B (ANP32B) (Increased in GRMD): -0.3439 fraction
- Change from GRMD Baseline (fraction): Activin receptor type-1B (ACVR1B) (Increased in GRMD): -0.0675 fraction
- Change from GRMD Baseline (fraction): Adenylate kinase isoenzyme 1 (AK1) (Increased in GRMD): -0.5663 fraction
- Change from GRMD Baseline (fraction): Adenylosuccinate lyase (ADSL) (Increased in GRMD): 0.1427 fraction
- Change from GRMD Baseline (fraction): Afamin (AFM) (Increased in GRMD): -0.1952 fraction
- Change from GRMD Baseline (fraction): Aflatoxin B1 aldehyde reductase member 2 (AKR7A2) (Increased in GRMD): -0.1733 fraction
- Change from GRMD Baseline (fraction): Alcohol dehydrogenase [NADP(+)] (AKR1A1) (Increased in GRMD): -0.2833 fraction
- Change from GRMD Baseline (fraction): Aminoacylase-1 (ACY1) (Increased in GRMD): -0.4238 fraction
- Change from GRMD Baseline (fraction): Amphoterin-induced protein 2 (AMIGO2) (Increased in GRMD): 0.0688 fraction
